One data set concerns the target T1, SERT (Homo sapiens, UniProt P31645).
T1 construct: expressed in transfected cells
The experiment in a line: SERT Inhibition Assay (Neurotransmitter Transportation Fluorescence assay). In kind it is cell-based. The settings on record: for IC50 Ratio to (−) Mesembrine: SERT assay, ratio to compound 0001. Here is the method:
Example A: SERT Inhibition Assay
SERT inhibition was measured using a Neurotransmitter Transportation Fluorescence assay. Briefly, stable 5HHH cells were prepared in a 384 microwell plate. Compounds were prepared by in assay buffer (20 mM HEPES, 0.1% BSA). The compounds were added to the plated cells and incubated for 30 minutes at 37° C. 25 μL of dye solution (Molecular Devices Neurotransmitter Transporter Uptake Assay Kit) was added per well and incubated for 30 minutes at 37° C. The plates were then read on a plate reader.

Data set [1] is described as follows: Metabolic stability compared to mesembrine. Type of data set: in vitro ADME.
A further data set has as its target 5-HTT (Homo sapiens, UniProt P31645). The experiment in a line: Potency at 5-HTT compared to mesembrine.
Another data set concerns the target 5-HT transporter (SERT) (Homo sapiens, UniProt P31645). The settings on record: concentration response curves; cited from earlier work.
[2] abbreviates: stable 5HHH cells, 30 minutes at 37° C., read-out: SERT Assay Potency Range.

SMILES strings stand for the structures. Where two headings read alike, the source gives them in different places.

T1 sequence (P31645 whole entry, species assumed): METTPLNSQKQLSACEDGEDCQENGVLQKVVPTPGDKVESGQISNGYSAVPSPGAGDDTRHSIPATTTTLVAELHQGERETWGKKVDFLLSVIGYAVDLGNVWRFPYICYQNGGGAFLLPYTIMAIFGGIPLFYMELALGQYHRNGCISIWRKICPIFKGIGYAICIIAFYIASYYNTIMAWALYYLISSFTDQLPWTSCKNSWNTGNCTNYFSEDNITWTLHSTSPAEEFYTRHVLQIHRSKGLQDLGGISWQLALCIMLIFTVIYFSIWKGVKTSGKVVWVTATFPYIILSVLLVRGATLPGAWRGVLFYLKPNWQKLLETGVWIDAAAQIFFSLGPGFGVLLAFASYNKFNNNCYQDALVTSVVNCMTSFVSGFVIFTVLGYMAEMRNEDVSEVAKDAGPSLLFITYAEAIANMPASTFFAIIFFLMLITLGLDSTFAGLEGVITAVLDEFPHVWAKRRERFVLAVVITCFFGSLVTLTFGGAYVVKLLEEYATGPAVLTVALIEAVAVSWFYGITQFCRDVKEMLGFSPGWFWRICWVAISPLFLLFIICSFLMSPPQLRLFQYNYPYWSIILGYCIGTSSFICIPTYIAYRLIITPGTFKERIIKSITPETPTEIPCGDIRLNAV
5-HTT, sequence (P31645 whole entry, species assumed): as above
5-HT transporter (SERT), sequence (P31645 whole entry, species assumed): as above

For `COc1ccc([C@@]23CCN(C)[C@@H]2C[C@H](O)[C@@H]2O[C@@H]23)cc1OC` (single isomer, unassigned) [Compound 1932], the “IC50 Ratio to (−) Mesembrine” value at SERT is given as not below 10. Besides, the IC50 at SERT (setting [2]) lay within 100 to 500 nM.
As to `COc1ccc([C@@]23CC[C@H](O)C[C@@H]2N(C)CC3)cc1OC` [6-epi-mesembranol], the metabolic stability entry in data set [1] is on record as “enhanced metabolic stability”. In addition, the “potency at 5-HTT” value on 5-HTT is given as “decrease in potency”.
For `COc1ccc([C@@]23CC[C@@H](O)C[C@@H]2N(C)CC3)cc1OC` [Compound 0018, (3aS,6R,7aS)-3a-(3,4-dimethoxyphenyl)-1-methyloctahydro-1H-indol-6-ol], the “IC50 Ratio to (−) Mesembrine” value on SERT was not below 1.0. In addition, at SERT (setting [2]), the IC50 is less than 50 nM.
The matching figures for `COc1ccc([C@@]23CC[C@H](O)C[C@@H]2N(C)CC3)cc1OC` [Compound 0019, (3aS,6S,7aS)-3a-(3,4-dimethoxyphenyl)-1-methyloctahydro-1H-indol-6-ol]: not below 1.0 and less than 50 nM.
For `COc1ccc([C@@]23C=C[C@@H](O)C[C@@H]2N(C)CC3)cc1OC` [Compound 0020], in that order: not below 100 and 100 to 500 nM.
Consider `COc1ccc([C@@]23C=C[C@H](O)C[C@@H]2N(C)CC3)cc1OC` [Compound 0021], for which the “IC50 Ratio to (−) Mesembrine” value on SERT was not below 10. Besides, the IC50 at SERT (setting [2]) is 100 to 500 nM.
Consider `COc1ccc([C@]23C=C[C@H](O)C[C@H]2N(C)CC3)cc1OC` [Compound 0023], for which, on SERT, the “IC50 Ratio to (−) Mesembrine” value is not below 10. Moreover, on SERT (setting [2]), the IC50 is 100 to 500 nM.
For `COc1ccc([C@]23C=C[C@@H](O)C[C@H]2N(C)CC3)cc1OC` [Compound 0024], the “IC50 Ratio to (−) Mesembrine” value on SERT is recorded as not below 100. Also, at SERT (setting [2]), the IC50 fell in the range of 100 to 500 nM.
The matching figures for `CCCOc1cc([C@@]23CC[C@@H](O)C[C@@H]2N(C)CC3)ccc1OC` [Compound 0707]: not below 10 and 50 to 100 nM.
For `CCCOc1cc([C@@]23CC[C@H](O)C[C@@H]2N(C)CC3)ccc1OC` [Compound 0708], in that order: not below 1.0 and less than 50 nM.
The matching figures for `CCN1CC[C@]2(c3ccc(OC)c(OC)c3)CC[C@@H](O)C[C@H]12` [Compound 1001]: not below 100 and more than 1000 nM.
In the case of `CCN1CC[C@]2(c3ccc(OC)c(OC)c3)CC[C@H](O)C[C@H]12` [Compound 1002], the “IC50 Ratio to (−) Mesembrine” value at SERT is given as not below 100. For the same compound, the IC50 at SERT (setting [2]) lay in the range of 500 to 1000 nM.
In the case of `CCOc1ccc([C@@]23CC[C@@H](O)C[C@@H]2N(C)CC3)cc1OCC` [Compound 1763], the “IC50 Ratio to (−) Mesembrine” value at SERT is not below 1.0. Moreover, the IC50 on SERT (setting [2]) was less than 50 nM.
For `CCOc1ccc([C@@]23CC[C@H](O)C[C@@H]2N(C)CC3)cc1OCC` [Compound 1764], in that order: not above 0.5 and less than 50 nM.
The matching figures for `COc1ccc([C@]23CCN(C)[C@H]2C[C@@H](O)[C@@H]2O[C@@H]23)cc1OC` [Compound 1930]: not below 10 and 100 to 500 nM.
The matching figures for `COc1ccc([C@]23CCN(C)[C@H]2[C@H]2CC[C@@H]3C[C@H]2O)cc1OC` [Compound 1933]: not below 1.0 and less than 50 nM.
For `COc1cc([C@@]23CC[C@H](O)C[C@@H]2N(C)CC3)ccc1O` [Compound 2700], on SERT, the “IC50 Ratio to (−) Mesembrine” value is reported as not below 1.0. Also, the IC50 at SERT (setting [2]) was less than 50 nM.
Take `COc1cc([C@@]23CC[C@@H](O)C[C@@H]2N(C)CC3)ccc1OC(F)F` [Compound 2723]: on SERT, the IC50 is less than 50 nM and the “IC50 Ratio to (−) Mesembrine” value is reported as not above 0.5.
In the case of `COc1cc([C@@]23CC[C@H](O)C[C@@H]2N(C)CC3)ccc1OC(F)F` [Compound 2724], at SERT, the “IC50 Ratio to (−) Mesembrine” value is on record as not above 0.5. Also, the IC50 at SERT (setting [2]) is less than 50 nM.
On to `COc1ccc([C@@]23C=C[C@@H](O)C[C@@H]2N(C)CC3)cc1OC` [Mesembrenol, mesembrenol], for which, on 5-HT transporter (SERT), the nH is reported as 1.1.
`COc1ccc([C@@]23CC[C@@H](O)C[C@@H]2N(C)CC3)cc1OC` [mesembranol, Mesembranol]: in data set [1], the metabolic stability entry is “enhanced metabolic stability”. On 5-HTT, the “potency at 5-HTT” value is reported as “decrease in potency”.

The record behind these values is patent publication US20250011281A1, “THERAPEUTIC ALKALOID COMPOUNDS” (Sensorium Therapeutics, Inc., priority 2023, published 2025).
